The values that follow come from patent publication US8410109B2, “Pharmaceutical compositions for the prevention and treatment of complex diseases and their delivery by insertable medical devices” (Resverlogix Corp., priority 2005, dated 2013).

The subject of one series is MCP-1. Description: MCP-1 ELISA on culture media of TNF-α stimulated HUVECs. Type of series: cell-based. The note with it: Homo sapiens, HUVEC, 50 uM, approx. 16 hours. The protocol:
(§1) Compounds were dissolved in DMSO, aliquoted, and stored at −20° C. Cultured human vascular endothelial cells (HUVECs) were seeded in 96-well plates in complete EGM-2 media (˜100 μL/well); cells were plated at ˜2-3×10^5/mL, and were from passage 8 to 12. Cells were incubated overnight. On the following day cells are stimulated with TNF-α (˜1 ng/mL) in the presence or absence of compounds dissolved in DMSO. Triplicate wells were used for each test. To establish a dose curve and an IC50, multiple concentrations in 2- to 5-fold increments were used. Cells were exposed to TNF-α and compounds for approximately 16 hours. The next day, cells were visually examined via light microscopy to score for visual signs of toxicity. Cell culture media was analyzed using an MCP-1 ELISA. Cells were refed (−100 μL/well) with 20% CellTiter 96. Aqueous One Cell Proliferation Solution (Promega), 80% EGM-2 medium. Media optical density (at 490 nm) was determined after 1 hour. Plates were aspirated and cell lysates were prepared and these lysates were tested using a VCAM-1 ELISA.
(§2) In Table 2, a positive result (+) was defined as at least 50% inhibition of the protein levels MCP-1 or VCAM-1, as determined by the ELISA.

Another series deals with VCAM-1. Description: VCAM-1 ELISA on lysates of TNF-α stimulated HUVECs. Type of series: cell-based. The note with it: Homo sapiens, HUVEC, 50 uM, approx. 16 hours. The protocol: as §1, §2
For orientation: ELISA stands for enzyme-linked immunosorbent assay.

The test system of series [1] is Human coronary artery smooth muscle cells (CASMCs). Kind of series: Smooth muscle cell proliferation protocol. Type of series: cell-based. The note with it: 50 uM, 72 hours, read-out: % Inhibition of SMC Proliferation. The protocol: Compounds were dissolved in DMSO, aliquoted, and stored at −20° C. Human coronary artery smooth muscle cells (CASMCs) were plated in 96-well plates and were grown in SmBM-2 media. After 1-2 hours, media was aspirated and replaced with serum-free ME/F12 media, except the controls. Cells were incubated for a further 48 hours. Compounds were diluted in DME/F12 containing 10% FBS. Media was aspirated from the plates and compounds in DME/F12 containing 10% FBS. Six wells were used per condition and duplicate plates were used. Cells were incubated for a further 72 hours. Media was aspirated from one set of plates; those cells were refed (˜100 μL/well) with 20% CellTiter 96 Aqueous One Cell Proliferation Solution (Promega), 80% EGM-2 medium. Media optical density (at 490 nm) was determined after 3-4 hours. In the second set of plates, serum-free DME/F12 media (20 μL) was added to each well. Part of the supernatant (50 μL) was removed and placed in an ELISA plate and was stored temporarily at 4° C. The remaining media and cells in the second set of plates were freeze-thawed for four cycles. The lysates and supernatants were mixed and centrifuged. Part of the supernatant (50 μL) was removed and placed in an ELISA plate. The Promega Cytotox assay was performed on the ELISA plates. The ratio of supernatant OD to supernatant+cell lysate OD was determined.
In Table 2, a positive result (+) was defined as at least 40% inhibition of the proliferation of SMC, as determined by the assay.

Molecules are shown by their SMILES.

The term melting point denotes the temperature, or range, at which the solid turns liquid. Turning to `Cn1c(-c2ccc(O)c(F)c2)cc2ncccc2c1=O` [EXAMPLE 16, 7-(3-Fluoro-4-hydroxyphenyl)-6-methyl-1,6-naphthyridin-5(6H)-one], the melting point fell in the range of 182 to 184 °C. The inhibition at 50 µM in the series with MCP-1 was less than 50%. Besides, the inhibition at 50 µM in the series with VCAM-1 is less than 50%. The inhibition at 50 µM in series [1] was less than 40%.
For `CNc1nc(-c2ccc(O)c(F)c2)cc2c(OC)cccc12` [EXAMPLE 17, 2-Fluoro-4-(5-methoxy-1-(methylamino)isoquinolin-3-yl)phenol], the melting point lay within 185 to 187 °C. In the series on MCP-1, this molecule showed an inhibition at 50 µM not below 50%. The molecule further showed an inhibition at 50 µM in the series on VCAM-1 not below 50%. The inhibition at 50 µM in series [1] was less than 40%.
Molecule `COc1cccc2c(=O)[nH]c(-c3ccc(O)c(F)c3)cc12` [EXAMPLE 18, 3-(3-Fluoro-4-hydroxyphenyl)-5-methoxyisoquinolin-1(2H)-one] showed a melting point of 289 to 291 °C. Also, the inhibition at 50 µM with MCP-1 is not below 50%. The inhibition at 50 µM in the series with VCAM-1 was not below 50%. Besides, in series [1], the inhibition at 50 µM is not below 40%.
Molecule `COc1cc(OC)c2c(=O)[nH]c(-c3ccc(O)cc3)cc2c1` [EXAMPLE 19, 3-(4-Hydroxyphenyl)-6,8-dimethoxyisoquinolin-1(2H)-one] showed a melting point of 245 to 247 °C. The molecule also registered an inhibition at 50 µM in the series on MCP-1 not below 50%. Moreover, the inhibition at 50 µM in the series on VCAM-1 was less than 50%. In addition, the inhibition at 50 µM in series [1] was not below 40%.
`O=c1[nH]c(-c2ccc(O)cc2)cc2ccccc12` [EXAMPLE 21, 3-(4-Hydroxyphenyl)-2H-isoquinolin-1-one] yielded a melting point of 239 to 241 °C. In the series on MCP-1, this molecule displayed an inhibition at 50 µM not below 50%. This molecule displayed an inhibition at 50 µM in the series with VCAM-1 not below 50%. In series [1], the inhibition at 50 µM is not below 40%.
As for `O=c1cc(-c2ccccc2)oc2ncccc12` [EXAMPLE 22, 2-Phenyl-4H-pyrano[2,3-b]pyridin-4-one], the melting point lay within 103 to 105 °C. This molecule also came in with an inhibition at 50 µM in the series on MCP-1 of less than 50%. The molecule also registered an inhibition at 50 µM with VCAM-1 of less than 50%. Further, the inhibition at 50 µM in series [1] was not below 40%.
Molecule `O=c1cc(-c2ccc(CO)cc2)oc2ncccc12` [EXAMPLE 23, 2-(4-(hydroxymethyl)phenyl)-4H-pyrano[2,3-b]pyridin-4-one] displayed a melting point of 218 to 219 °C. Also, the inhibition at 50 µM with MCP-1 was less than 50%. This molecule also returned an inhibition at 50 µM in the series with VCAM-1 of less than 50%. The inhibition at 50 µM in series [1] was not below 40%.
`Cc1cc(-c2cc(=O)c3cccnc3o2)cc(C)c1O` [EXAMPLE 24, 2-(4-hydroxy-3,5-dimethylphenyl)-4H-pyrano[2,3-b]pyridin-4-one]: the melting point is 295 to 297 °C. For the same molecule, in the series with MCP-1, the inhibition at 50 µM is not below 50%. For the same molecule, the inhibition at 50 µM in the series with VCAM-1 was not below 50%. The inhibition at 50 µM in series [1] is not below 40%.
`O=c1cc(-c2cccnc2)oc2ccccc12` [EXAMPLE 25, 2-(pyridin-3-yl)-4H-chromen-4-one] registered a melting point of 122.8 to 124 °C. In the series with MCP-1, the inhibition at 50 µM is less than 50%. The same molecule yielded an inhibition at 50 µM with VCAM-1 of less than 50%. Further, the inhibition at 50 µM in series [1] was not below 40%.
For the molecule `O=c1cc(-c2ccc(O)c(-c3cccs3)c2)oc2ncccc12` [EXAMPLE 28, 2-(4-hydroxy-3-(thiophen-2-yl)phenyl)-4H-pyrano[2,3-b]pyridin-one], the melting point lay within 273.5 to 275 °C. For the same molecule, the inhibition at 50 µM with MCP-1 was less than 50%. Also, in the series with VCAM-1, the inhibition at 50 µM was not below 50%. The inhibition at 50 µM in series [1] is less than 40%.
On to `Cc1cc(-c2cc(=O)c3cccnc3o2)cc(C)c1OCC(=O)O` [EXAMPLE 29, 2-(2,6-dimethyl-4-(4-oxo-4H-pyrano[2,3-b]pyridin-2-yl)phenoxy)acetic Acid], for which the melting point was found to be 280 °C. The molecule also showed an inhibition at 50 µM with MCP-1 of less than 50%. For the same molecule, the inhibition at 50 µM in the series with VCAM-1 is less than 50%. Moreover, the inhibition at 50 µM in series [1] was not below 40%.
`O=c1cc(-c2ccc(O)c(Br)c2)oc2ncccc12` [EXAMPLE 32, 2-(3-Bromo-4-hydroxyphenyl)-4H-pyrano[2,3-b]pyridin-4-one] gave a melting point of 267 to 272 °C. The same molecule had an inhibition at 50 µM in the series on MCP-1 of less than 50%. The inhibition at 50 µM in the series on VCAM-1 is not below 50%. Further, in series [1], the inhibition at 50 µM was not below 40%.
